Source: ChEMBL document CHEMBL4311960, “Two optimized antimicrobial peptides with therapeutic potential for clinical antibiotic-resistant Staphylococcus aureus” (Eur J Med Chem, 2019)
Activity calls are given as the source filed them. The calls are words filed in the database; no cut-off is given here.

Experiments:
Staphylococcus aureus [1] = assay: Inhibition of biofilm formation in Staphylococcus aureus ATCC 25923 at MIC incubated for 24 hrs by scanning electron microscopy; type: functional, organism-based
Staphylococcus aureus [2] = assay: Inhibition of biofilm formation in Staphylococcus aureus ATCC 29213 assessed as downregulation of hld gene at MIC incubated for 1 hr by qRT-PCR; type: functional, organism-based
Staphylococcus aureus [3] = assay: Disruption of membrane integrity in Staphylococcus aureus ATCC 29213 assessed as decrease in cell volume at MIC incubated for 24 hrs by scanning electron microscopy; type: functional, organism-based
Staphylococcus aureus [4] = assay: Antibacterial activity against methicillin-resistant Staphylococcus aureus ATCC 18466 assessed as reduction in bacterial growth incubated for 24 hrs by serial dilution method; type: functional; details: ATCC 18466, 24 h, read-out: MIC
Staphylococcus aureus [5] = assay: Inhibition of biofilm formation in Staphylococcus aureus ATCC 29213 at MIC incubated for 24 hrs by scanning electron microscopy; type: functional, organism-based
Staphylococcus aureus [6] = assay: Disruption of membrane integrity in Staphylococcus aureus ATCC 25923 assessed as decrease in cell volume at MIC incubated for 24 hrs by scanning electron microscopy; type: functional, organism-based
Staphylococcus aureus [7] = assay: Disruption of membrane integrity in methicillin-resistant Staphylococcus aureus ATCC 18466 assessed as shrinking of cell membrane at MIC incubated for 24 hrs by scanning electron microscopy; type: functional, organism-based
Staphylococcus aureus [8] = assay: Inhibition of biofilm formation in Staphylococcus aureus ATCC 25923 assessed as downregulation of spa gene at MIC incubated for 1 hr by qRT-PCR; type: functional, organism-based
Staphylococcus aureus [9] = assay: Inhibition of biofilm formation in Staphylococcus aureus ATCC 29213 assessed as downregulation of spa gene at MIC incubated for 1 hr by qRT-PCR; type: functional, organism-based
Staphylococcus aureus [10] = assay: Disruption of membrane integrity in methicillin-resistant Staphylococcus aureus ATCC 19498 assessed as decrease in cell volume at MIC incubated for 24 hrs by scanning electron microscopy; type: functional, organism-based
Staphylococcus aureus [11] = assay: Antibacterial activity against Staphylococcus aureus ATCC 25923 assessed as reduction in bacterial growth incubated for 24 hrs by serial dilution method; type: functional; details: ATCC 25923, 24 h, read-out: MIC
Staphylococcus aureus [12] = assay: Inhibition of biofilm formation in Staphylococcus aureus ATCC 25923 assessed as downregulation of hld gene at MIC incubated for 1 hr by qRT-PCR; type: functional, organism-based
Staphylococcus aureus [13] = assay: Inhibition of biofilm formation in Staphylococcus aureus ATCC 25923 assessed as downregulation of […] gene at MIC incubated for 1 hr by qRT-PCR; type: functional, organism-based
[14] = Cytotoxicity against human HEK293T cells assessed as cell viability at 5 to 640 ug/ml incubated for 48 hrs by MTT assay relative to control; type: cell-based, HEK-293T; details: read-out: Activity
Staphylococcus aureus [15] = assay: Disruption of membrane integrity in methicillin-resistant Staphylococcus aureus ATCC 19498 assessed as invagination of cell membrane at MIC incubated for 24 hrs by scanning electron microscopy; type: functional, organism-based
Staphylococcus aureus [16] = assay: Disruption of membrane integrity in methicillin-resistant Staphylococcus aureus ATCC 19498 assessed as extravasation of cytoplasmic content at MIC incubated for 24 hrs by scanning electron microscopy; type: functional, organism-based
Staphylococcus aureus [17] = assay: Disruption of membrane integrity in Staphylococcus aureus ATCC 25923 assessed as invagination of cell membrane at MIC incubated for 24 hrs by scanning electron microscopy; type: functional, organism-based
Staphylococcus aureus [18] = assay: Inhibition of biofilm formation in methicillin-resistant Staphylococcus aureus ATCC 18466 assessed as downregulation of […] gene at MIC incubated for 1 hr by qRT-PCR; type: functional, organism-based
Staphylococcus aureus [19] = assay: Disruption of membrane integrity in methicillin-resistant Staphylococcus aureus ATCC 19498 assessed as perforation of cell membrane at MIC incubated for 24 hrs by scanning electron microscopy; type: functional, organism-based
Staphylococcus aureus [20] = assay: Inhibition of biofilm formation in Staphylococcus aureus ATCC 29213 assessed as downregulation of mecA gene at MIC incubated for 1 hr by qRT-PCR; type: functional, organism-based
Staphylococcus aureus [21] = assay: Inhibition of biofilm formation in Staphylococcus aureus ATCC 25923 assessed as downregulation of mecA gene at MIC incubated for 1 hr by qRT-PCR; type: functional, organism-based
Staphylococcus aureus [22] = assay: Disruption of membrane integrity in methicillin-resistant Staphylococcus aureus ATCC 18466 assessed as invagination of cell membrane at MIC incubated for 24 hrs by scanning electron microscopy; type: functional, organism-based
Staphylococcus aureus [23] = assay: Inhibition of biofilm formation in methicillin-resistant Staphylococcus aureus ATCC 19498 assessed as downregulation of mecA gene at MIC incubated for 1 hr by qRT-PCR; type: functional, organism-based
Streptococcus sanguinis = assay: Antibacterial activity against Streptococcus sanguinis ATCC 10556 assessed as reduction in bacterial growth incubated for 24 hrs by serial dilution method; type: functional; details: ATCC 10556, 24 h, read-out: MIC
[24] = Hemolytic activity in mouse Erythrocyte at 640 ug/ml incubated for 1 hr relative to control; type: ADME, cell-based; details: mouse erythrocytes, read-out: %max
Staphylococcus aureus [25] = assay: Disruption of membrane integrity in Staphylococcus aureus ATCC 29213 assessed as perforation of cell membrane at MIC incubated for 24 hrs by scanning electron microscopy; type: functional, organism-based
Staphylococcus aureus [26] = assay: Antibacterial activity against Staphylococcus aureus ATCC 25923 assessed as reduction in bacterial growth at MIC measured after 15 passages; type: functional
Staphylococcus aureus [27] = assay: Inhibition of biofilm formation in methicillin-resistant Staphylococcus aureus ATCC 19498 assessed as downregulation of […] gene at MIC incubated for 1 hr by qRT-PCR; type: functional, organism-based
Staphylococcus aureus [28] = assay: Disruption of membrane integrity in methicillin-resistant Staphylococcus aureus ATCC 19498 assessed as shrinking of cell membrane at MIC incubated for 24 hrs by scanning electron microscopy; type: functional, organism-based
Staphylococcus aureus [29] = assay: Disruption of membrane integrity in Staphylococcus aureus ATCC 29213 assessed as extravasation of cytoplasmic content at MIC incubated for 24 hrs by scanning electron microscopy; type: functional, organism-based
[30] = Stability in mouse plasma at 20 uM incubated for 12 hrs by HPLC-MS analysis; type: ADME, cell-free
[31] = Hemolytic activity in mouse Erythrocyte assessed as HC50 incubated for 1 hr; type: ADME, cell-based; details: mouse erythrocytes
Staphylococcus aureus [32] = assay: Inhibition of biofilm formation in Staphylococcus aureus ATCC 29213 assessed as downregulation of […] gene at MIC incubated for 1 hr by qRT-PCR; type: functional, organism-based
Streptococcus mutans = assay: Antibacterial activity against Streptococcus mutans UA159 assessed as reduction in bacterial growth incubated for 24 hrs by serial dilution method; type: functional; details: UA159, 24 h, read-out: MIC
Staphylococcus aureus [33] = assay: Inhibition of biofilm formation in methicillin-resistant Staphylococcus aureus ATCC 19498 at MIC incubated for 24 hrs by scanning electron microscopy; type: functional, organism-based
Staphylococcus aureus [34] = assay: Disruption of membrane integrity in Staphylococcus aureus ATCC 25923 assessed as shrinking of cell membrane at MIC incubated for 24 hrs by scanning electron microscopy; type: functional, organism-based
[35] = Stability in MRSA supernatant at 20 uM incubated for 24 hrs by HPLC-MS analysis; type: physicochemical
Staphylococcus aureus [36] = assay: Inhibition of biofilm formation in methicillin-resistant Staphylococcus aureus ATCC 19498 assessed as downregulation of spa gene at MIC incubated for 1 hr by qRT-PCR; type: functional, organism-based
Staphylococcus aureus [37] = assay: Disruption of membrane integrity in Staphylococcus aureus ATCC 29213 assessed as invagination of cell membrane at MIC incubated for 24 hrs by scanning electron microscopy; type: functional, organism-based

In the case of H-SYERKINRHFKTLKKNLKKK-NH2, the inhibition (Staphylococcus aureus [1]) is reported as “Active”, the inhibition (Staphylococcus aureus [2]) is reported as “Active” and the Activity (Staphylococcus aureus [3]) is reported as “Active”. For the same substance, the MIC (Staphylococcus aureus [4]) was 16 mg/L, the inhibition (Staphylococcus aureus [5]) was “Active” and the Activity (Staphylococcus aureus [6]) was “Active”. The Activity (Staphylococcus aureus [7]) was “Active”, the inhibition (Staphylococcus aureus [8]) was “Active” and the inhibition (Staphylococcus aureus [9]) was “Active”. The Activity (Staphylococcus aureus [10]) was “Active”, the MIC (Staphylococcus aureus [11]) was 32 mg/L and the inhibition (Staphylococcus aureus [12]) was “Active”. The inhibition (Staphylococcus aureus [13]) was “Active”, the viability at 48 h [14] was 70 to 80% and the Activity (Staphylococcus aureus [15]) was “Active”. For the same substance, the Activity (Staphylococcus aureus [16]) was “Active”, the Activity (Staphylococcus aureus [17]) was “Active” and the inhibition (Staphylococcus aureus [18]) was “Active”. For the same substance, the Activity (Staphylococcus aureus [19]) was “Active”, the inhibition (Staphylococcus aureus [20]) was “inactive” and the inhibition (Staphylococcus aureus [21]) was “inactive”. For the same substance, the Activity (Staphylococcus aureus [22]) was “Active”, the inhibition (Staphylococcus aureus [23]) was “inactive” and the MIC (Streptococcus sanguinis) was under 64 mg/L. For the same substance, the hemolysis at 1 h, 640 ug/ml [24] was 7.06%, the Activity (Staphylococcus aureus [25]) was “Active” and the Activity (Staphylococcus aureus [26]) was “Active”. For the same substance, the inhibition (Staphylococcus aureus [27]) was “Active”, the Activity (Staphylococcus aureus [28]) was “Active” and the Activity (Staphylococcus aureus [29]) was “Active”. The Stability [30] was “Stable”, the HC50 at 1 h [31] was over 640 µg/mL and the inhibition (Staphylococcus aureus [32]) was “Active”. The MIC (Streptococcus mutans) was under 64 mg/L, the inhibition (Staphylococcus aureus [33]) was “Active” and the Activity (Staphylococcus aureus [34]) was “Active”. For the same substance, the Stability [35] was “Stable”, the inhibition (Staphylococcus aureus [36]) was “Active” and the Activity (Staphylococcus aureus [37]) was “Active”.
With H-YIRKIRRFFKKLKKILKK-NH2 the inhibition (Staphylococcus aureus [1]) was “Active”, the inhibition (Staphylococcus aureus [2]) was “Active” and the Activity (Staphylococcus aureus [3]) was “Active”. The MIC (Staphylococcus aureus [4]) was 8 mg/L, the inhibition (Staphylococcus aureus [5]) was “Active” and the Activity (Staphylococcus aureus [6]) was “Active”. For the same substance, the Activity (Staphylococcus aureus [7]) was “Active”, the inhibition (Staphylococcus aureus [8]) was “Active” and the inhibition (Staphylococcus aureus [9]) was “Active”. The Activity (Staphylococcus aureus [10]) was “Active”, the MIC (Staphylococcus aureus [11]) was 8 mg/L and the inhibition (Staphylococcus aureus [12]) was “Active”. The inhibition (Staphylococcus aureus [13]) was “Active”, the viability at 48 h [14] was 70 to 80% and the Activity (Staphylococcus aureus [15]) was “Active”. The Activity (Staphylococcus aureus [16]) was “Active”, the Activity (Staphylococcus aureus [17]) was “Active” and the inhibition (Staphylococcus aureus [18]) was “Active”. The Activity (Staphylococcus aureus [19]) was “Active”, the inhibition (Staphylococcus aureus [20]) was “inactive” and the inhibition (Staphylococcus aureus [21]) was “inactive”. For the same substance, the Activity (Staphylococcus aureus [22]) was “Active”, the inhibition (Staphylococcus aureus [23]) was “inactive” and the MIC (Streptococcus sanguinis) was under 64 mg/L. The hemolysis at 1 h, 640 ug/ml [24] was 10.3%, the Activity (Staphylococcus aureus [25]) was “Active” and the Activity (Staphylococcus aureus [26]) was “Active”. For the same substance, the inhibition (Staphylococcus aureus [27]) was “Active”, the Activity (Staphylococcus aureus [28]) was “Active” and the Activity (Staphylococcus aureus [29]) was “Active”. For the same substance, the Stability [30] was “Stable”, the HC50 at 1 h [31] was over 640 µg/mL and the inhibition (Staphylococcus aureus [32]) was “Active”. For the same substance, the MIC (Streptococcus mutans) was 64 mg/L, the inhibition (Staphylococcus aureus [33]) was “Active” and the Activity (Staphylococcus aureus [34]) was “Active”. For the same substance, the Stability [35] was “Stable”, the inhibition (Staphylococcus aureus [36]) was “Active” and the Activity (Staphylococcus aureus [37]) was “Active”.
